Tests used:
PBP5 (PBP5_37-678) = assay: NMR chemical shift perturbation titration (2D [1H,15N] TROSY, 2D [1H,13C] ILV methyl HMQC) of stem peptides / PG into PBP5; type: binding, Enterococcus faecium; details: peptides up to 1:80 PBP5:SP (SP3 1:1000); PG 1:0.25-1:5
Method: Data was processed using Topspin 4.1.4 (Bruker) and analyzed using NMRFAM-SPARKY 1.3 and Poky (build number 20240829)[20],[21]. The sequence-specific backbone assignment of PBP5 is publicly available at BMRBID 51690.
SPs (SP1 to SP7) were titrated into 0.5 mM (^2H,^15N)-labeled and 0.1 mM (^2H,^15N)/^13C ILV labeled PBP5 at molar ratios of 0:1, 5:1, 10:1, 20:1, 40:1, 60:1, and 80:1 (stem peptide/SP:PBP5; molar ratios). 2D [^1H,^15N] TROSY or 2D [^1H,^13C] HMQC spectra were recorded for each titration point. SPs were solubilized in NMR buffer. Chemical shift perturbations (Δδ) between PBP5 and SP bound PBP5 spectra were calculated using Eq. 1,1 Δδppm=ΔδH^2+ΔδX/Y^2 where, X is ^15N or ^13C and Y is the constant i.e., 10 for ^15N and 4 for ^13C.
Residues with significant CSPs were identified by calculating the standard deviation of all CSPs (σ), then excluding any CSPs larger than average+2σ, recalculating σ as a new corrected σ0, and then repetitively removing CSPs above 2σ0 until no additional CSPs can be removed. CSPs above ≥2σ2 was the statistical threshold for ^1H/^15N backbone CSP analysis and ≥2xσ1 for ^1H/^13C methyl ILV data for the interaction of SP1 with PBP5. The same threshold values were used for all other peptides to allow for direct comparison with the SP1/PBP5 interaction. The identical significance analysis was also performed for PenG/ceftaroline saturated PBP5 (1:8 molar ratio of PBP5 to β-lactam antibiotics was used to ensure saturation of an extended time period needed for the SP titrations) SP interaction studies; CSPs above ≥2σ3 was the statistical threshold for ^1H/^15N backbone CSP analysis and ≥2xσ2 for ^1H/^13C methyl ILV data to identify all residues with a statistically significant change in its chemical shift upon SP interaction.
Residue specific KD values were calculated by using Eq. 2[23],2 CSPobs=CSPmax/2PP+S+KD−P+S+KD^2−4[S][P] where P and S are the concentration of PBP5 and SP1, respectively. CSPobs is the experimentally observed chemical shift value and CSPmax is the largest experimentally observed chemical shift value of the residue. […] The lack of saturation was due to the limited amount of available SP peptide due to their difficult synthesis. Residues used for KD calculation were common residues with statistically significant CSPs in the interaction studies of SP1 and SP2 with PBP5 at a 1:80 ratio.

PBP5 = assay: 1D 1H STD NMR of stem peptides with PBP5; type: binding, Enterococcus faecium; details: for STD % to SP1: normalised to highest SP1:PBP5 value; for STD amplification factor: protein:peptide 1:100, 2 s saturation, 308 K
From the text: Total saturation time for STD measurements was 2 s.
Overlapped peaks were completely excluded from the analysis.

Substance: D-Ala-D-Ala [SP3]
- interaction with PBP5 by CSPs, in words (PBP5 (PBP5_37-678)): no CSPs were observed

Substance: D-Lac-L-Ala-D-iGln-Gly-D-Ala-D-Ala [SP4, SP with L-Lys(D-iAsn) replaced by Gly]
- interaction with PBP5 by CSPs, in words (PBP5 (PBP5_37-678)): interacts with PBP5 very poorly
- STD amplification factor as fraction of highest SP1:PBP5 value (PBP5; 1H DA4β, DLacβ): 0.2081
- STD % to SP1 (PBP5; 1H DA4β, DLacβ): 20.809%
- STD amplification factor (PBP5; 1H DA4β, DLacβ): 5.599
- STD amplification factor as fraction of highest SP1:PBP5 value (PBP5; 1H DA5α): 0.5864
- STD % to SP1 (PBP5; 1H DA5α): 58.6405%
- STD amplification factor (PBP5; 1H DA5α): 15.7792
- STD amplification factor as fraction of highest SP1:PBP5 value (PBP5; 1H DA5β): 0.2717
- STD % to SP1 (PBP5; 1H DA5β): 27.1666%
- STD amplification factor (PBP5; 1H DA5β): 7.3101
- STD amplification factor as fraction of highest SP1:PBP5 value (PBP5; 1H DQ2α,Dlacα,DA4α,LA1α): 0.3132
- STD % to SP1 (PBP5; 1H DQ2α,Dlacα,DA4α,LA1α): 31.3217%
- STD amplification factor (PBP5; 1H DQ2α,Dlacα,DA4α,LA1α): 8.428
- STD amplification factor as fraction of highest SP1:PBP5 value (PBP5; 1H DQ2β (first listed)): 0.6761
- STD % to SP1 (PBP5; 1H DQ2β (first listed)): 67.6099%
- STD amplification factor (PBP5; 1H DQ2β (first listed)): 18.1927
- STD amplification factor as fraction of highest SP1:PBP5 value (PBP5; 1H DQ2β (second listed)): 0.8081
- STD % to SP1 (PBP5; 1H DQ2β (second listed)): 80.8137%
- STD amplification factor (PBP5; 1H DQ2β (second listed)): 21.7457
- STD amplification factor as fraction of highest SP1:PBP5 value (PBP5; 1H DQ2γ): 0.2977
- STD % to SP1 (PBP5; 1H DQ2γ): 29.7735%
- STD amplification factor (PBP5; 1H DQ2γ): 8.012
- STD amplification factor as fraction of highest SP1:PBP5 value (PBP5; 1H G3α): 0.19
- STD % to SP1 (PBP5; 1H G3α): 19.0039%
- STD amplification factor (PBP5; 1H G3α): 5.114
- STD amplification factor as fraction of highest SP1:PBP5 value (PBP5; 1H LA1β): 0.2515
- STD % to SP1 (PBP5; 1H LA1β): 25.1468%
- STD amplification factor (PBP5; 1H LA1β): 6.767

Substance: D-Lac-L-Ala-D-iGln-L-Lys-D-Ala-D-Ala [SP5]
- interaction with PBP5 by CSPs, in words (PBP5 (PBP5_37-678)): weaker interaction
- STD amplification factor as fraction of highest SP1:PBP5 value (PBP5; 1H D5α): 0.4969
- STD % to SP1 (PBP5; 1H D5α): 49.685%
- STD amplification factor (PBP5; 1H D5α): 13.3694
- STD amplification factor as fraction of highest SP1:PBP5 value (PBP5; 1H DA4α,LA1α): 0.2481
- STD % to SP1 (PBP5; 1H DA4α,LA1α): 24.8062%
- STD amplification factor (PBP5; 1H DA4α,LA1α): 6.675
- STD amplification factor as fraction of highest SP1:PBP5 value (PBP5; 1H DA4β, DLacβ): 0.2031
- STD % to SP1 (PBP5; 1H DA4β, DLacβ): 20.3132%
- STD amplification factor (PBP5; 1H DA4β, DLacβ): 5.466
- STD amplification factor as fraction of highest SP1:PBP5 value (PBP5; 1H DA5β): 0.283
- STD % to SP1 (PBP5; 1H DA5β): 28.3024%
- STD amplification factor (PBP5; 1H DA5β): 7.616
- STD amplification factor as fraction of highest SP1:PBP5 value (PBP5; 1H DQ2α,Dlacα): 0.2004
- STD % to SP1 (PBP5; 1H DQ2α,Dlacα): 20.0424%
- STD amplification factor (PBP5; 1H DQ2α,Dlacα): 5.393
- STD amplification factor as fraction of highest SP1:PBP5 value (PBP5; 1H DQ2β (first listed)): 0.5843
- STD % to SP1 (PBP5; 1H DQ2β (first listed)): 58.4308%
- STD amplification factor (PBP5; 1H DQ2β (first listed)): 15.7228
- STD amplification factor as fraction of highest SP1:PBP5 value (PBP5; 1H DQ2β (second listed)): 0.7133
- STD % to SP1 (PBP5; 1H DQ2β (second listed)): 71.3266%
- STD amplification factor (PBP5; 1H DQ2β (second listed)): 19.1928
- STD amplification factor as fraction of highest SP1:PBP5 value (PBP5; 1H DQ2γ): 0.2744
- STD % to SP1 (PBP5; 1H DQ2γ): 27.4437%
- STD amplification factor (PBP5; 1H DQ2γ): 7.385
- STD amplification factor as fraction of highest SP1:PBP5 value (PBP5; 1H K3α): 0.381
- STD % to SP1 (PBP5; 1H K3α): 38.104%
- STD amplification factor (PBP5; 1H K3α): 10.2532
- STD amplification factor as fraction of highest SP1:PBP5 value (PBP5; 1H K3β): 0.5122
- STD % to SP1 (PBP5; 1H K3β): 51.2163%
- STD amplification factor (PBP5; 1H K3β): 13.7815
- STD amplification factor as fraction of highest SP1:PBP5 value (PBP5; 1H K3δ): 0.5418
- STD % to SP1 (PBP5; 1H K3δ): 54.1786%
- STD amplification factor (PBP5; 1H K3δ): 14.5786
- STD amplification factor as fraction of highest SP1:PBP5 value (PBP5; 1H K3ε): 0.2671
- STD % to SP1 (PBP5; 1H K3ε): 26.7058%
- STD amplification factor (PBP5; 1H K3ε): 7.186
- STD amplification factor as fraction of highest SP1:PBP5 value (PBP5; 1H LA1β): 0.2119
- STD % to SP1 (PBP5; 1H LA1β): 21.1895%
- STD amplification factor (PBP5; 1H LA1β): 5.702

Substance: D-Lac-L-Ala-D-nGln-L-Lys(D-iAsn)-D-Ala-D-Ala [SP6]
- interaction with PBP5 by CSPs, in words (PBP5 (PBP5_37-678)): more akin to that of SP1 than SP4
- STD amplification factor as fraction of highest SP1:PBP5 value (PBP5; 1H DA4α,LA1α,DQ2α): 0.3043
- STD % to SP1 (PBP5; 1H DA4α,LA1α,DQ2α): 30.434%
- STD amplification factor (PBP5; 1H DA4α,LA1α,DQ2α): 8.1893
- STD amplification factor as fraction of highest SP1:PBP5 value (PBP5; 1H DA4β, DLacβ): 0.3219
- STD % to SP1 (PBP5; 1H DA4β, DLacβ): 32.1881%
- STD amplification factor (PBP5; 1H DA4β, DLacβ): 8.661
- STD amplification factor as fraction of highest SP1:PBP5 value (PBP5; 1H DA5α): 0.8446
- STD % to SP1 (PBP5; 1H DA5α): 84.4584%
- STD amplification factor (PBP5; 1H DA5α): 22.7264
- STD amplification factor as fraction of highest SP1:PBP5 value (PBP5; 1H DA5β): 0.4039
- STD % to SP1 (PBP5; 1H DA5β): 40.3917%
- STD amplification factor (PBP5; 1H DA5β): 10.8688
- STD amplification factor as fraction of highest SP1:PBP5 value (PBP5; 1H DQ2β (first listed)): 0.9448
- STD % to SP1 (PBP5; 1H DQ2β (first listed)): 94.4801%
- STD amplification factor (PBP5; 1H DQ2β (first listed)): 25.4231
- STD amplification factor as fraction of highest SP1:PBP5 value (PBP5; 1H DQ2β (second listed)): 1.053
- STD % to SP1 (PBP5; 1H DQ2β (second listed)): 105.321%
- STD amplification factor (PBP5; 1H DQ2β (second listed)): 28.3401
- STD amplification factor as fraction of highest SP1:PBP5 value (PBP5; 1H DQ2γ): 0.4867
- STD % to SP1 (PBP5; 1H DQ2γ): 48.6725%
- STD amplification factor (PBP5; 1H DQ2γ): 13.097
- STD amplification factor as fraction of highest SP1:PBP5 value (PBP5; 1H K3β): 0.991
- STD % to SP1 (PBP5; 1H K3β): 99.098%
- STD amplification factor (PBP5; 1H K3β): 26.6657
- STD amplification factor as fraction of highest SP1:PBP5 value (PBP5; 1H K3δ): 0.802
- STD % to SP1 (PBP5; 1H K3δ): 80.2012%
- STD amplification factor (PBP5; 1H K3δ): 21.5809
- STD amplification factor as fraction of highest SP1:PBP5 value (PBP5; 1H LA1β): 0.4375
- STD % to SP1 (PBP5; 1H LA1β): 43.7522%
- STD amplification factor (PBP5; 1H LA1β): 11.773
- STD amplification factor as fraction of highest SP1:PBP5 value (PBP5; 1H iNα ,Dlacα,K3α): 0.4025
- STD % to SP1 (PBP5; 1H iNα ,Dlacα,K3α): 40.2497%
- STD amplification factor (PBP5; 1H iNα ,Dlacα,K3α): 10.8306
- STD amplification factor as fraction of highest SP1:PBP5 value (PBP5; 1H iNβ): 0.4322
- STD % to SP1 (PBP5; 1H iNβ): 43.2239%
- STD amplification factor (PBP5; 1H iNβ): 11.6309

— article PMC12717099, “Peptidoglycan recruitment by a penicillin binding protein” (Nature Communications, 2025)
